Experimental data taken from publication PMC5216352, “Disulfide isomerase-like protein AtPDIL1–2 is a good candidate for trichlorophenol phytodetoxification” (Scientific Reports, 2017).

Target: T1, AtPDIL1-2 (Arabidopsis thaliana, UniProt Q9SRG3)
T1 construct: gene PDIL1-2; full-length cDNA (1527 bp ORF, start codon to C-terminal KDEL) in pET-32a, His-tagged fusion about 72 kDa, E. coli, Ni-NTA purified
T1 sequence (Q9SRG3 1-508): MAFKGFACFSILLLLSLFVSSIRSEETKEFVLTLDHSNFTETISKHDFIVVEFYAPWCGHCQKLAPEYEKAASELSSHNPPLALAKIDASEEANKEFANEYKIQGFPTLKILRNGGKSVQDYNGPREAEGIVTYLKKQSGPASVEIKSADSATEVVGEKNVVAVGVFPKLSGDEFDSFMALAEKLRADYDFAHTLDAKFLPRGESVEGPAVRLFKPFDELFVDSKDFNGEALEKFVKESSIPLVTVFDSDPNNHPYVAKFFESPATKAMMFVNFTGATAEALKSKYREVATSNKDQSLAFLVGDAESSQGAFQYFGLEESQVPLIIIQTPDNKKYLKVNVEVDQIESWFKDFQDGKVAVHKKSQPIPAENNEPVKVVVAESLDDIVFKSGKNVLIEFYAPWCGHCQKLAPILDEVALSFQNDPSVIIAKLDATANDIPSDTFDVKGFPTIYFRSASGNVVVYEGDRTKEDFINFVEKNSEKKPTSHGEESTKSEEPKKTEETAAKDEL
Experiment: RNase A oxidative refolding assay, cCMP hydrolysis at […] nm
Type: biochemical
Details: 3.5 uM protein, 10 uM reduced denatured RNase, 4.5 mM cCMP, 1 mM GSH, 0.2 mM GSSG, pH 8; TCP concentration not given

Oc1c(Cl)cc(Cl)cc1Cl [2,4,6-TCP]
maximum inhibition: 16%
